# Source: US12220415B2, “WEE1 kinase inhibitors and methods of treating cancer using the same” (The Regents of the University of Colorado, A Body Corporate, priority 2018, dated 2025)
# Like-named read-outs stand apart in the source and are kept apart here.
# Columns and labels:
# recombinant WEE1 kinase = recombinant WEE1 kinase (Homo sapiens (Human), UniProt P30291); assay: LanthaScreen Eu TR-FRET kinase binding assay for WEE1 kinase inhibitory activity; conditions: Kinase Tracer 178, 1 hour at room temperature
# Procedure: A LanthaScreen™ kinase activity assay was conducted to assess WEE1 kinase inhibitory activity for compounds of this disclosure. […] All reagents were prepared as solutions in 1× kinase buffer A (Invitrogen) at 3× final desired concentration. […] Inhibitors were assayed in the final concentration range of 0.04 nM to 10 μM.
# [1] = test system: pCDK1 (Tyr15) in Daoy cell lysates; assay: pCDK1 (Tyr15) ELISA in Daoy cell lysates; format: cell-based, human; conditions: 24 hours, single 220 nM dose
# Procedure: WEE1 inactivates CDC2 through selective phosphorylation of the Tyr15 residue of cyclin-dependent kinase 1 (CDK1) stabilizing the CDC2-cyclin B complex. Therefore, inhibition of WEE1 kinase activity will prevent the phosphorylation of its substrate CDK1 at Tyr15. […] Following drug incubation, the media was aspirated from cells before cells were trypsinized and resuspended in TES/SB buffer containing protease inhibitors. Cells were lysed on ice through sonication, and cell lysates were diluted with ELISA Pathscan® sample diluent to a final volume of 100 μL and protein concentration of 0.05 mg/ml prior to use. The relative concentration of p-CDK1 Tyr15 was determined using an enzyme-linked immunosorbent assay according to recommended protocol (Cell Signaling, ELISA Pathscan® phosphor-Cdc2 (Tyr15)).
# Daoy cells = assay: MTS cell viability assay in Daoy cells; format: cell-based, human; conditions: for EC50: read-out: EC50 cellular metabolic viability, Daoy; for activity at 0.6 µM: at 600 nM; for inhibition at 0.6 µM: 72 hr, @ 600 nM, read-out: percent cell inhibition, DAOY
# Procedure: (§1) FIG. 1A is a dose-response study for ONS-76 cells treated with a concentration range of WEE1 inhibitors for 72 hours in an MTS assay. […] FIG. 1B is a dose-response study for Daoy cells treated with a concentration range of WEE1 inhibitors for 72 hours in an MTS assay.
# (§2) To evaluate the effect of the WEE1 kinase inhibitors, Daoy cells and ONS-76 cells (human primary medulloblastoma cell lines) were treated with test compounds and cell growth was by MTS assay (FIGS. 1A and 1B). […] Cells were incubated for 72 hr with 50 μL of each diluted drug solution. Cell viability was measured by 2 hr incubation with 30 μL CellTiter 96® AQueous One Cell Proliferation reagent (Promega) and formazan concentration assessed through colorimetric analysis using a BioTek Synergy H1 plate reader (Absorption=490 nm).
# medulloblastoma cells = conditions: Mol Cancer. 2014, 13:72, cited from earlier work
# ONS-76 cells = assay: MTS cell viability assay in ONS-76 cells; format: cell-based; conditions: Homo sapiens; for EC50: read-out: EC50 cellular metabolic viability, ONS-76; for IC50: read-out: Mean IC50, ONS-76; for inhibition at 1.16 µM: @ 1160 nM, read-out: percent cell inhibition, ONS-76
# Procedure: as §1, §2
# [2] = test system: murine AML-expressing MLL-ENL, FLT3-ITD, and luciferase; assay: Murine AML model, disease progression by luciferase expression; format: in vivo; conditions: mice with AML, cytarabine alone
# Procedure: In a second toxicity study, mice without leukemia were treated with cytarabine and/or a WEE1 inhibitor for 5 of 7 days for 3 consecutive weeks. […] The inventors then used an aggressive model of murine AML-expressing MLL-ENL, FLT3-ITD, and luciferase, to determine whether WEE1 inhibition would enhance the anti-leukemia effects of cytarabine.
# [3] = Homo sapiens, Daoy cells, 72 hours, MTS assay
# [4] = Homo sapiens, Daoy cells, MTS assay
# [5] = ONS-76 cells, 72 hours, MTS assay, n=3, ±=S.D.
# Sequence of recombinant WEE1 kinase (P30291 whole entry): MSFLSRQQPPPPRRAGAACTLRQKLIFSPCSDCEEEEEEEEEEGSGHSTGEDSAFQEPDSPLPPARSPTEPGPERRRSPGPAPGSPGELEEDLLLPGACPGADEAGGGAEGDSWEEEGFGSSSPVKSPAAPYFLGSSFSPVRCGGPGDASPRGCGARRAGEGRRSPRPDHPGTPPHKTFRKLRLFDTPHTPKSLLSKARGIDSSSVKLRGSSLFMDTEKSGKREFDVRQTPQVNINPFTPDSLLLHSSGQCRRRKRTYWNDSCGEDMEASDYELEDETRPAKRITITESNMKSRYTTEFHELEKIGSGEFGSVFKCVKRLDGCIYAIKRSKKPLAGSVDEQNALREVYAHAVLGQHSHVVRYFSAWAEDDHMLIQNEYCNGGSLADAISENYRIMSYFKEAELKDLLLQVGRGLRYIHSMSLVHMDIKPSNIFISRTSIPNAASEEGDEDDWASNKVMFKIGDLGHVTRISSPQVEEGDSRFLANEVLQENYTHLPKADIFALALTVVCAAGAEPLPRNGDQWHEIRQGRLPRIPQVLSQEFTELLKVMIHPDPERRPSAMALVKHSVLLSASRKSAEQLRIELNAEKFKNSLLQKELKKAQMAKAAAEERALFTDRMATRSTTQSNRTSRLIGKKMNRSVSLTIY
structure (smiles),measurement,setting,value
C=CCn1c(=O)c2cnc(N)nc2n1-c1cccc(C(C)(C)O)n1,IC50,recombinant WEE1 kinase,0.0177 µM
C=CCn1c(=O)c2cnc(NCc3ccc(CC)cc3)nc2n1-c1cccc(C(C)(C)O)n1,IC50,recombinant WEE1 kinase,0.0136 µM
C=CCn1c(=O)c2cnc(Nc3cccc(C#N)c3)nc2n1-c1cccc(C(C)(C)O)n1,IC50,recombinant WEE1 kinase,0.0781 µM
C=CCn1c(=O)c2cnc(Nc3cccc(C(=O)N(C)C)c3)nc2n1-c1cccc(C(C)(C)O)n1,IC50,recombinant WEE1 kinase,0.0273 µM
COc1ccc(Cn2c(=O)c3cnc(Nc4ccc(N5CCN(C)CC5)cc4)nc3n2-c2cccc(C(C)(C)O)n2)cc1,IC50,recombinant WEE1 kinase,0.0897 µM
C=C(C)c1cccc(-n2c3nc(Nc4ccc(N5CCN(C)CC5)cc4)ncc3c(=O)n2C)n1,IC50,recombinant WEE1 kinase,0.179 µM
C=CCn1c(=O)c2cnc(Nc3ccc(N4CCN(C)CC4)cc3)nc2n1-c1cccc(CO)c1,IC50,recombinant WEE1 kinase,0.0104 µM
"C=CCn1c(=O)c2cnc(Nc3ccc(N4CCN(C)CC4)cc3)nc2n1-c1cccc(C(C)(C)O)n1 [AZD1775, 2-allyl-1-(6-(2-hydroxypropan-2-yl)pyridin-2-yl)-6-((4-(4-methylpiperazin-1-yl)phenyl)amino)-1,2-dihydro-3H-pyrazolo[3,4-d]pyrimidin-3-one, reference compound]",pCDK1(Tyr15) level compared to DMSO control,[1],decrease
same,EC50,"Daoy cells; Homo sapiens, Daoy, 72 h",0.15 µM
same,IC50,"Daoy cells; Homo sapiens, Daoy, 72 h, read-out: Mean IC50, DAOY",0.378 µM
same,EC50,"Daoy cells; Daoy cells, 72 hours, MTS assay, n=3, ±=S.D.",0.179 ± 0.016 µM
same,activity in combination with cisplatin,medulloblastoma cells; medulloblastoma cells,synergistic activity
same,single agent effect in medulloblastoma,medulloblastoma cells; single agent,"suppressed cell growth, induced apoptosis, and decreased tumor growth"
same,EC50,"ONS-76 cells; ONS-76, 72 h",0.29 µM
same,IC50,"ONS-76 cells; ONS-76, 72 h",0.221 µM
"C=CCn1c(=O)c2cnc(Nc3ccc(N4CCN(C)CC4)cc3)nc2n1-c1cccc(C(C)(C)O)c1 [CM-169, 2-allyl-1-(3-(2-hydroxypropan-2-yl)phenyl)-6-((4-(4-methylpiperazin-1-yl)phenyl)amino)-1,2-dihydro-3H-pyrazolo[3,4-d]pyrimidin-3-one]",pCDK1(Tyr15) level compared to DMSO control,[1],statistically the same as that for AZD1775
same,inhibition at 1.16 µM,"ONS-76 cells; ONS-76 cells, 72 hr, MTS assay",61%
"C=CCn1c(=O)c2cnc(Nc3ccc(N4CCN(C)CC4)cc3)nc2n1-c1cccc(CO)n1 [CM-170, 2-allyl-1-(6-(hydroxymethyl)pyridin-2-yl)-6-((4-(4-methylpiperazin-1-yl)phenyl)amino)-1,2-dihydro-3H-pyrazolo[3,4-d]pyrimidin-3-one]",inhibition at 1.16 µM,"ONS-76 cells; ONS-76 cells, 72 hr, MTS assay",59%
"C=CCn1c(=O)c2cnc(Nc3ccc(OCCN(C)C)cc3)nc2n1-c1cccc(C(C)(C)O)n1 [CM-181, 2-allyl-6-((4-(2-(dimethylamino)ethoxy)phenyl)amino)-1-(6-(2-hydroxypropan-2-yl)pyridin-2-yl)-1,2-dihydro-3H-pyrazolo[3,4-d]pyrimidin-3-one]",pCDK1(Tyr15) level compared to DMSO control,[1],decrease
same,activity at 0.6 µM,Daoy cells; [3],81%
same,inhibition at 0.6 µM,Daoy cells; [4],82%
same,EC50,ONS-76 cells; [5],0.203 ± 0.04 µM
same,IC50,"ONS-76 cells; ONS-76 cells, 72 hr, MTS assay",0.273 µM
"C=CCn1c(=O)c2cnc(Nc3cccc(CN(C)C)c3)nc2n1-c1cccc(C(C)(C)O)n1 [KAC-014, 2-allyl-6-((3-((dimethylamino)methyl)phenyl)amino)-1-(6-(2-hydroxypropan-2-yl)pyridin-2-yl)-1,2-dihydro-3H-pyrazolo[3,4-d]pyrimidin-3-one]",inhibition at 1.16 µM,"ONS-76 cells; ONS-76 cells, 72 hr, MTS assay",40%
"C=CCn1c(=O)c2cnc(Nc3ccccc3)nc2n1-c1cccc(C(C)(C)O)n1 [KAC-017, 2-allyl-1-(6-(2-hydroxypropan-2-yl)pyridin-2-yl)-6-(phenylamino)-1,2-dihydro-3H-pyrazolo[3,4-d]pyrimidin-3-one]",inhibition at 1.16 µM,"ONS-76 cells; ONS-76 cells, 72 hr, MTS assay",32%
"C=CCn1c(=O)c2cnc(Nc3cccc(N(C)C)c3)nc2n1-c1cccc(C(C)(C)O)n1 [KAC-019, 2-allyl-6-((3-(dimethylamino)phenyl)amino)-1-(6-(2-hydroxypropan-2-yl)pyridin-2-yl)-1,2-dihydro-3H-pyrazolo[3,4-d]pyrimidin-3-one]",inhibition at 1.16 µM,"ONS-76 cells; ONS-76 cells, 72 hr, MTS assay",33%
"C=CCn1c(=O)c2cnc(Nc3ccc(CCN(C)C)cc3)nc2n1-c1cccc(C(C)(C)O)n1 [KAC-034, 2-allyl-6-((4-(2-(dimethylamino)ethyl)phenyl)amino)-1-(6-(2-hydroxypropan-2-yl)pyridin-2-yl)-1,2-dihydro-3H-pyrazolo[3,4-d]pyrimidin-3-one]",pCDK1(Tyr15) level compared to DMSO control,[1],decrease
same,activity at 0.6 µM,Daoy cells; [3],84%
same,inhibition at 0.6 µM,Daoy cells; [4],83%
same,EC50,ONS-76 cells; [5],0.252 ± 0.009 µM
same,IC50,"ONS-76 cells; ONS-76 cells, 72 hr, MTS assay",0.495 µM
Nc1ccn([C@@H]2O[C@H](CO)[C@@H](O)[C@@H]2O)c(=O)n1 [cytarabine],"leukemia progression, measured by luciferase expression over time",[2],slowed the progression of the leukemia
C=CCn1c(=O)c2cnc(Nc3ccccc3)nc2n1-c1cccc(C(C)(C)O)n1 [drawing 14],IC50,recombinant WEE1 kinase,0.0096 µM
C=CCn1c(=O)c2cnc(Nc3cccc(CN(C)C)c3)nc2n1-c1cccc(C(C)(C)O)n1 [drawing 18],IC50,recombinant WEE1 kinase,0.0091 µM
C=CCn1c(=O)c2cnc(Nc3ccc(CCN(C)C)cc3)nc2n1-c1cccc(C(C)(C)O)n1 [drawing 20],IC50,recombinant WEE1 kinase,0.0018 µM
C=CCn1c(=O)c2cnc(Nc3ccc(OCCN(C)C)cc3)nc2n1-c1cccc(C(C)(C)O)n1 [drawing 21],IC50,recombinant WEE1 kinase,0.0078 µM
